Data on 12 molecules can be found in ChEMBL document CHEMBL4138084, “Structure-activity relationship study of the tumour-targeting peptide A20FMDV2 via modification of Lys16, Leu13, and N- and/or C-terminal functionality” (Eur J Med Chem, 2017).

Data set [1] in a line: Drug uptake in human A375PPuro cells at 1000 nM after 15 mins by flow cytometric analysis. Format: ADME, cell-based. The following applies: 0.25 h, 1 µM.
The target in data set [2] is T1, Integrin alpha-V/beta-6 (Homo sapiens, UniProt P06756+P18564). The experiment in a line: Binding affinity to alphav/beta6 integrin in human A375Pbeta6 cells assessed as drug internalization at 100 nM after 15 mins by flow cytometric analysis relative to biotinylated A20FMDV2. Format: ADME, cell-based. The conditions noted are these: 0.25 h, 0.1 µM.
Target sequence in this assay (P06756 31-889 limits assumed): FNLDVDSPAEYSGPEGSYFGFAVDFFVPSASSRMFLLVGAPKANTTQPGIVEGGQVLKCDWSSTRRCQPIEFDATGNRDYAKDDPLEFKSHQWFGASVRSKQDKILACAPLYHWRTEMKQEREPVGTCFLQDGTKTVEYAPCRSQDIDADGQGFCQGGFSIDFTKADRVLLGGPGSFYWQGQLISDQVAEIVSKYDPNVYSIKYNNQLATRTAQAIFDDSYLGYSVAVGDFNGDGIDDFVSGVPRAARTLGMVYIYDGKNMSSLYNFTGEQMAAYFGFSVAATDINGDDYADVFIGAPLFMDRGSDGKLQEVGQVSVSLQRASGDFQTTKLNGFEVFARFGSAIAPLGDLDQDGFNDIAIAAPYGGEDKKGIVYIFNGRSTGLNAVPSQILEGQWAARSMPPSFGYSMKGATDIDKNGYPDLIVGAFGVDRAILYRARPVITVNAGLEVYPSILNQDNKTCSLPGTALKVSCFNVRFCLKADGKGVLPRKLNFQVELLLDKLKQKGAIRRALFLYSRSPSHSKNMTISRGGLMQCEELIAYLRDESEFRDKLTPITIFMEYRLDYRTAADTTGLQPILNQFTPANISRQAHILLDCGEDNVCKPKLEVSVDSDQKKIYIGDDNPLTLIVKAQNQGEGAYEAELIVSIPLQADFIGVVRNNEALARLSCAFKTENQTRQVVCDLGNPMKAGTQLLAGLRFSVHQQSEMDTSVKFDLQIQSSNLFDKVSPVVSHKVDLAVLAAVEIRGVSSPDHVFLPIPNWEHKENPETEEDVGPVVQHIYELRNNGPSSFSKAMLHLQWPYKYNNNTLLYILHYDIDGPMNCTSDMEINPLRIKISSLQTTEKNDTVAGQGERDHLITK
Target sequence in this assay (P06756 891-1048 limits assumed): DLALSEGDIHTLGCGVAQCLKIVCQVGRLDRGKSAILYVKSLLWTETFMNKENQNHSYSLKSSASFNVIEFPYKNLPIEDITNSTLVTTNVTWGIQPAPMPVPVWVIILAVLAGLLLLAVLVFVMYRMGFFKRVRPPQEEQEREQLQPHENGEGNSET
Target sequence in this assay (P18564 22-788 limits assumed): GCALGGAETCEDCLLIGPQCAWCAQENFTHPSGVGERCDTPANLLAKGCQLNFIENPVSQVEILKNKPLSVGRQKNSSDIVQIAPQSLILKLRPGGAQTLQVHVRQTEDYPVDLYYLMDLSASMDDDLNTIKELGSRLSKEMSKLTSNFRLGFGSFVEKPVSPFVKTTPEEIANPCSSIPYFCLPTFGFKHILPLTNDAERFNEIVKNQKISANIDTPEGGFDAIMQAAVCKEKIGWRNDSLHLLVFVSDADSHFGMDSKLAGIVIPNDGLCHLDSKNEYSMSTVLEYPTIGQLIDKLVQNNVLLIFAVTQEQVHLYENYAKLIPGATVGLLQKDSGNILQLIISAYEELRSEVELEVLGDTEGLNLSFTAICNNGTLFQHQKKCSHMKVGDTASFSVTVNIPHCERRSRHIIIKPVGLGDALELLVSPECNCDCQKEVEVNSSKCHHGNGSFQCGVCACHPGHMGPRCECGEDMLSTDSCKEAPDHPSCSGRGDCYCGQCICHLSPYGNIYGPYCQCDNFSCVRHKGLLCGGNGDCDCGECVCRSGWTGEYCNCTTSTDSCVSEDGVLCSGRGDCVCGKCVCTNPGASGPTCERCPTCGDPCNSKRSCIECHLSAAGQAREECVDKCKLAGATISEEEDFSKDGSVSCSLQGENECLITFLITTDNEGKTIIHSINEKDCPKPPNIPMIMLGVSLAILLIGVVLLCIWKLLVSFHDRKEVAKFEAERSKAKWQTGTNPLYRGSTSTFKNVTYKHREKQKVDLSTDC
The target of data set [3] is T1, Integrin alpha-V/beta-6. The experiment in a line: Binding affinity to alphav/beta6 integrin in human A375Pbeta6 cells at 100 nM after 15 mins by flow cytometric analysis relative to biotinylated A20FMDV2. Format: cell-based. On the technique in general: Flow cytometry measures light scatter and fluorescence of single cells or particles in a stream.

On to `CC(C)C[C@H](NC(=O)[C@H](CC(=O)O)NC(=O)CNC(=O)[C@H](CCCNC(=N)N)NC(=O)[C@H](CC(C)C)NC(=O)[C@H](CC(N)=O)NC(=O)[C@@H]1CCCN1C(=O)[C@@H](NC(=O)[C@H](CCCCNC(=O)CCCC[C@@H]1SC[C@@H]2NC(=O)N[C@@H]21)NC(=O)[C@@H](N)CC(N)=O)C(C)C)C(=O)N[C@@H](CCC(N)=O)C(=O)N[C@H](C(=O)N[C@@H](CC(C)C)C(=O)N[C@@H](C)C(=O)N[C@@H](CCC(N)=O)C(=O)N[C@H](CCCCN)C(=O)N[C@H](C(=O)N[C@@H](C)C(=O)N[C@@H](CCCNC(=N)N)C(=O)N[C@H](C(=O)O)[C@@H](C)O)C(C)C)C(C)C`, for which the Drug uptake result in data set [1] is given as “Not Active”. Besides, the figures for the “fold change (FC)” value in data set [2] and in data set [3] were 0.78 and 1.11, respectively.

In the case of `CC(C)C[C@H](NC(=O)[C@H](CC(=O)O)NC(=O)CNC(=O)[C@H](CCCNC(=N)N)NC(=O)[C@H](CC(C)C)NC(=O)[C@H](CC(N)=O)NC(=O)[C@@H]1CCCN1C(=O)[C@@H](NC(=O)[C@H](CCCCNC(=O)CCCC[C@@H]1SC[C@@H]2NC(=O)N[C@@H]21)NC(=O)[C@@H](N)CC(N)=O)C(C)C)C(=O)N[C@@H](CCC(N)=O)C(=O)N[C@H](C(=O)N[C@@H](CC1CCCCC1)C(=O)N[C@@H](C)C(=O)N[C@@H](CCC(N)=O)C(=O)N[C@@H](CCCCN)C(=O)N[C@H](C(=O)N[C@@H](C)C(=O)N[C@@H](CCCNC(=N)N)C(=O)N[C@H](C(=O)O)[C@@H](C)O)C(C)C)C(C)C`, the Drug uptake result in data set [1] is “Not Active”. Also, the “fold change (FC)” value in data set [2] is 1.01; in data set [3] it was 0.62.

Consider `CC(C)C[C@H](NC(=O)[C@H](CC(=O)O)NC(=O)CNC(=O)[C@H](CCCNC(=N)N)NC(=O)[C@H](CC(C)C)NC(=O)[C@H](CC(N)=O)NC(=O)[C@@H]1CCCN1C(=O)[C@@H](NC(=O)[C@H](CCCCNC(=O)CCCC[C@@H]1SC[C@@H]2NC(=O)N[C@@H]21)NC(=O)[C@@H](N)CC(N)=O)C(C)C)C(=O)N[C@@H](CCC(N)=O)C(=O)N[C@H](C(=O)N[C@H](C(=O)N[C@@H](C)C(=O)N[C@@H](CCC(N)=O)C(=O)N[C@@H](CCCCN)C(=O)N[C@H](C(=O)N[C@@H](C)C(=O)N[C@@H](CCCNC(=N)N)C(=O)N[C@H](C(=O)O)[C@@H](C)O)C(C)C)C12CC3CC(CC(C3)C1)C2)C(C)C`, for which the Drug uptake result in data set [1] is given as “Not Active”. Moreover, the results for the “fold change (FC)” value in data set [2] and in data set [3] were 1.07 and 0.51, respectively.

Take `CC(=O)N[C@@H](CC(N)=O)C(=O)N[C@@H](CCCCNC(=O)CCCC[C@@H]1SC[C@@H]2NC(=O)N[C@@H]21)C(=O)N[C@H](C(=O)N1CCC[C@H]1C(=O)N[C@@H](CC(N)=O)C(=O)N[C@@H](CC(C)C)C(=O)N[C@@H](CCCNC(=N)N)C(=O)NCC(=O)N[C@@H](CC(=O)O)C(=O)N[C@@H](CC(C)C)C(=O)N[C@@H](CCC(N)=O)C(=O)N[C@H](C(=O)N[C@@H](CC(C)C)C(=O)N[C@@H](C)C(=O)N[C@@H](CCC(N)=O)C(=O)N[C@@H](CCCCN)C(=O)N[C@H](C(=O)N[C@@H](C)C(=O)N[C@@H](CCCNC(=N)N)C(=O)N[C@H](C(N)=O)[C@@H](C)O)C(C)C)C(C)C)C(C)C`: the Drug uptake result in data set [1] was “Not Active”. The “fold change (FC)” value in data set [2] amounted to 0.87; in data set [3] it was 1.25.

For the molecule `CCC(CC)[C@H](NC(=O)[C@@H](NC(=O)[C@H](CCC(N)=O)NC(=O)[C@H](CC(C)C)NC(=O)[C@H](CC(=O)O)NC(=O)CNC(=O)[C@H](CCCNC(=N)N)NC(=O)[C@H](CC(C)C)NC(=O)[C@H](CC(N)=O)NC(=O)[C@@H]1CCCN1C(=O)[C@@H](NC(=O)[C@H](CCCCNC(=O)CCCC[C@@H]1SC[C@@H]2NC(=O)N[C@@H]21)NC(=O)[C@@H](N)CC(N)=O)C(C)C)C(C)C)C(=O)N[C@@H](C)C(=O)N[C@@H](CCC(N)=O)C(=O)N[C@@H](CCCCN)C(=O)N[C@H](C(=O)N[C@@H](C)C(=O)N[C@@H](CCCNC(=N)N)C(=O)N[C@H](C(=O)O)[C@@H](C)O)C(C)C`, the Drug uptake result in data set [1] is on record as “Not Active”. Besides, the “fold change (FC)” value in data set [2] came to 0.52; in data set [3], 0.7.

As to `CC(C)C[C@H](NC(=O)[C@H](CC(=O)O)NC(=O)CNC(=O)[C@H](CCCNC(=N)N)NC(=O)[C@H](CC(C)C)NC(=O)[C@H](CC(N)=O)NC(=O)[C@@H]1CCCN1C(=O)[C@@H](NC(=O)[C@H](CCCCNC(=O)CCCC[C@@H]1SC[C@@H]2NC(=O)N[C@@H]21)NC(=O)[C@@H](N)CC(N)=O)C(C)C)C(=O)N[C@@H](CCC(N)=O)C(=O)N[C@H](C(=O)NC(C)(C)C(=O)N[C@@H](C)C(=O)N[C@@H](CCC(N)=O)C(=O)N[C@@H](CCCCN)C(=O)N[C@H](C(=O)N[C@@H](C)C(=O)N[C@@H](CCCNC(=N)N)C(=O)N[C@H](C(=O)O)[C@@H](C)O)C(C)C)C(C)C`, the Drug uptake result in data set [1] is “Not Active”. Also, the results for the “fold change (FC)” value in data set [2] and in data set [3] were 1.11 and 1.07, respectively.

For the molecule `CCC[C@H](NC(=O)[C@@H](NC(=O)[C@H](CCC(N)=O)NC(=O)[C@H](CC(C)C)NC(=O)[C@H](CC(=O)O)NC(=O)CNC(=O)[C@H](CCCNC(=N)N)NC(=O)[C@H](CC(C)C)NC(=O)[C@H](CC(N)=O)NC(=O)[C@@H]1CCCN1C(=O)[C@@H](NC(=O)[C@H](CCCCNC(=O)CCCC[C@@H]1SC[C@@H]2NC(=O)N[C@@H]21)NC(=O)[C@@H](N)CC(N)=O)C(C)C)C(C)C)C(=O)N[C@@H](C)C(=O)N[C@@H](CCC(N)=O)C(=O)N[C@@H](CCCCN)C(=O)N[C@H](C(=O)N[C@@H](C)C(=O)N[C@@H](CCCNC(=N)N)C(=O)N[C@H](C(=O)O)[C@@H](C)O)C(C)C`, the Drug uptake result in data set [1] is reported as “Not Active”. Further, the “fold change (FC)” value in data set [2] was 1.09; in data set [3], 0.77.

In the case of `CC(C)C[C@H](NC(=O)[C@H](CC(=O)O)NC(=O)CNC(=O)[C@H](CCCNC(=N)N)NC(=O)[C@H](CC(C)C)NC(=O)[C@H](CC(N)=O)NC(=O)[C@@H]1CCCN1C(=O)[C@@H](NC(=O)[C@H](CCCCNC(=O)CCCC[C@@H]1SC[C@@H]2NC(=O)N[C@@H]21)NC(=O)[C@@H](N)CC(N)=O)C(C)C)C(=O)N[C@@H](CCC(N)=O)C(=O)N[C@H](C(=O)N[C@@H](CC(C)C)C(=O)N[C@@H](C)C(=O)N[C@@H](CCC(N)=O)C(=O)N[C@@H](CCCN)C(=O)N[C@H](C(=O)N[C@@H](C)C(=O)N[C@@H](CCCNC(=N)N)C(=O)N[C@H](C(=O)O)[C@@H](C)O)C(C)C)C(C)C`, the Drug uptake entry in data set [1] was “Not Active”. The “fold change (FC)” value turned out to be 0.86 in data set [2] and 1.12 in data set [3].

Regarding `C=CC[C@H](NC(=O)[C@@H](NC(=O)[C@H](CCC(N)=O)NC(=O)[C@H](CC(C)C)NC(=O)[C@H](CC(=O)O)NC(=O)CNC(=O)[C@H](CCCNC(=N)N)NC(=O)[C@H](CC(C)C)NC(=O)[C@H](CC(N)=O)NC(=O)[C@@H]1CCCN1C(=O)[C@@H](NC(=O)[C@H](CCCCNC(=O)CCCC[C@@H]1SC[C@@H]2NC(=O)N[C@@H]21)NC(=O)[C@@H](N)CC(N)=O)C(C)C)C(C)C)C(=O)N[C@@H](C)C(=O)N[C@@H](CCC(N)=O)C(=O)N[C@@H](CCCCN)C(=O)N[C@H](C(=O)N[C@@H](C)C(=O)N[C@@H](CCCNC(=N)N)C(=O)N[C@H](C(=O)O)[C@@H](C)O)C(C)C`, the Drug uptake entry in data set [1] is listed as “Not Active”. For the same molecule, the “fold change (FC)” value in data set [2] was 0.82; in data set [3], 0.58.

In the case of `CC(C)C[C@H](NC(=O)[C@H](CC(=O)O)NC(=O)CNC(=O)[C@H](CCCNC(=N)N)NC(=O)[C@H](CC(C)C)NC(=O)[C@H](CC(N)=O)NC(=O)[C@@H]1CCCN1C(=O)[C@@H](NC(=O)[C@H](CCCCNC(=O)CCCC[C@@H]1SC[C@@H]2NC(=O)N[C@@H]21)NC(=O)[C@@H](N)CC(N)=O)C(C)C)C(=O)N[C@@H](CCC(N)=O)C(=O)N[C@H](C(=O)N[C@@H](CC(C)(C)C)C(=O)N[C@@H](C)C(=O)N[C@@H](CCC(N)=O)C(=O)N[C@@H](CCCCN)C(=O)N[C@H](C(=O)N[C@@H](C)C(=O)N[C@@H](CCCNC(=N)N)C(=O)N[C@H](C(=O)O)[C@@H](C)O)C(C)C)C(C)C`, the Drug uptake entry in data set [1] is listed as “Not Active”. Also, the “fold change (FC)” value is 1.03 in data set [2] and 0.6 in data set [3].

For the molecule `CC(C)C[C@H](NC(=O)[C@H](CC(=O)O)NC(=O)CNC(=O)[C@H](CCCNC(=N)N)NC(=O)[C@H](CC(C)C)NC(=O)[C@H](CC(N)=O)NC(=O)[C@@H]1CCCN1C(=O)[C@@H](NC(=O)[C@H](CCCCNC(=O)CCCC[C@@H]1SC[C@@H]2NC(=O)N[C@@H]21)NC(=O)[C@H](CC(N)=O)NC(=O)CNC(=O)CN(CCN(CCN(CC(=O)O)CC(=O)O)CC(=O)O)CC(=O)O)C(C)C)C(=O)N[C@@H](CCC(N)=O)C(=O)N[C@H](C(=O)N[C@@H](CC(C)C)C(=O)N[C@@H](C)C(=O)N[C@@H](CCC(N)=O)C(=O)N[C@@H](CCCCN)C(=O)N[C@H](C(=O)N[C@@H](C)C(=O)N[C@@H](CCCNC(=N)N)C(=O)N[C@H](C(=O)O)[C@@H](C)O)C(C)C)C(C)C`, in data set [1], the Drug uptake entry was “Not Active”. In addition, the figures for the “fold change (FC)” value in data set [2] and in data set [3] were 0.97 and 1.28, respectively.

Take `CC(C)C[C@H](NC(=O)[C@H](CC(=O)O)NC(=O)CNC(=O)[C@H](CCCNC(=N)N)NC(=O)[C@H](CC(C)C)NC(=O)[C@H](CC(N)=O)NC(=O)[C@@H]1CCCN1C(=O)[C@@H](NC(=O)[C@H](CCCCNC(=O)CCCC[C@@H]1SC[C@@H]2NC(=O)N[C@@H]21)NC(=O)[C@@H](N)CC(N)=O)C(C)C)C(=O)N[C@@H](CCC(N)=O)C(=O)N[C@H](C(=O)N[C@@H](CC(C)C)C(=O)N[C@@H](C)C(=O)N[C@@H](CCC(N)=O)C(=O)N[C@@H](CCN)C(=O)N[C@H](C(=O)N[C@@H](C)C(=O)N[C@@H](CCCNC(=N)N)C(=O)N[C@H](C(=O)O)[C@@H](C)O)C(C)C)C(C)C`: the Drug uptake result in data set [1] is “Not Active”. Further, the “fold change (FC)” value worked out at 0.86 in data set [2] and 1 in data set [3].
